Laboratory results from publication PMC12751012, “Nanoscale Direct-to-Biology Optimization and Structural Insights into Selective S. aureus TrmD Inhibitors” (Journal of Medicinal Chemistry, 2025).

Target: T1, S. aureus TrmD (Staphylococcus aureus, UniProt Q2FZ43)
T1 construct: made in house; host or cells: E. coli BL21
T1 sequence (Q2FZ43 1-245): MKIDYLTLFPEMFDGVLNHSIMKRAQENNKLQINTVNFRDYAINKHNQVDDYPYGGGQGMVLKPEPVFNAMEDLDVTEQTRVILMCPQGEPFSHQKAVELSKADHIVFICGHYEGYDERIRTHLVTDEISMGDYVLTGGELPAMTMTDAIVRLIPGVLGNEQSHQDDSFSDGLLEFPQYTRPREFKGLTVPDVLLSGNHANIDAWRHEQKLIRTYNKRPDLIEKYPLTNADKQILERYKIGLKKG
Assay: nanoSAR direct-to-biology FP displacement screening of crude triazoles
Type: binding
Conditions: crude triazole at 1 μM, assuming full conversion; 500 nM TrmD, 10 nM tracer 4; read-out: % displaced tracer
Summary of the method: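 Crude CuAAC triazoles from alkyne 7 and 320 diverse azides were screened by FP displacement of 10 nM tracer 4 from 500 nM S. aureus TrmD. Buffer was 40 mM Tris HCl, 100 mM NaCl, 10 mM MgCl2, 5% glycerol, pH 7.5.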

| SMILES | inhibition at 1 µM |
| --- | --- |
| O=c1[nH]cnc2[nH]cc(-c3cn([C@H]4CCc5cccnc54)nn3)c12 [Compound 03G04, O=C1NC=NC=2NC=C(C=3N=NN(C3)[C@@H]4c5ncccc5CC4)C12] | 49% |
| O=c1[nH]cnc2[nH]cc(-c3cn([C@H]4CCCNC4)nn3)c12 [Compound 01B01, O=C1NC=NC=2NC=C(C=3N=NN(C3)[C@@H]4C[NH2+]CCC4)C12] | 29% |
| Cc1ccccc1Cn1cc(-c2c[nH]c3nc[nH]c(=O)c23)nn1 [Compound 02G09, O=C1NC=NC=2NC=C(C=3N=NN(C3)Cc4c(cccc4)C)C12] | 75% |
| O=c1[nH]cnc2[nH]cc(-c3cn(C4CC4)nn3)c12 [Compound 01B05, O=C1NC=NC=2NC=C(C=3N=NN(C3)C4CC4)C12] | 12% |
| NS(=O)(=O)c1ccc(-n2cc(-c3c[nH]c4nc[nH]c(=O)c34)nn2)cc1 [Compound 02B06, S(=O)(=O)(N)c1ccc(N2N=NC(C=3C=4C(=O)NC=NC4NC3)=C2)cc1] | 17% |
| C[C@H](c1csc2ccccc12)n1cc(-c2c[nH]c3nc[nH]c(=O)c23)nn1 [Compound 04H01, S1c2c(cccc2)C(=C1)[C@H](N3N=NC(C=4C=5C(=O)NC=NC5NC4)=C3)C] | 87% |
| Cc1nc2cc(-n3cc(-c4c[nH]c5nc[nH]c(=O)c45)nn3)ccc2s1 [Compound 01H06, S1c2c(N=C1C)cc(N3N=NC(C=4C=5C(=O)NC=NC5NC4)=C3)cc2] | 26% |
| O=c1[nH]cnc2[nH]cc(-c3cn(Cc4ccno4)nn3)c12 [Compound 04F02, O=C1NC=NC=2NC=C(C=3N=NN(C3)CC=4ON=CC4)C12] | 92% |
| O=c1[nH]cnc2[nH]cc(-c3cn(-c4ccccc4-c4ccccc4)nn3)c12 [Compound 01E12, O=C1NC=NC=2NC=C(C=3N=NN(c4c(c5ccccc5)cccc4)C3)C12] | 34% |
| N[C@H]1CC[C@H](n2cc(-c3c[nH]c4nc[nH]c(=O)c34)nn2)CC1 [Compound 02D09, O=C1NC=NC=2NC=C(C=3N=NN(C3)[C@@H]4CC[C@@H]([NH3+])CC4)C12] | 21% |
| O=c1[nH]cnc2[nH]cc(-c3cn(CC4CNC4)nn3)c12 [Compound 01B06, O=C1NC=NC=2NC=C(C=3N=NN(C3)CC4C[NH2+]C4)C12] | 62% |
| O=c1[nH]cnc2[nH]cc(-c3cn(Cc4cn5ccccc5n4)nn3)c12 [Compound 01E04, O=C1NC=NC=2NC=C(C=3N=NN(C3)CC=4N=C5N(C4)C=CC=C5)C12] | 46% |
| O=c1[nH]cnc2[nH]cc(-c3cn([C@H]4CC5(CCCC5)Oc5ccc(Cl)cc54)nn3)c12 [Compound 02C05, Clc1cc2c(OC3(C[C@@H]2N4N=NC(C=5C=6C(=O)NC=NC6NC5)=C4)CCCC3)cc1] | 55% |
| CC(CO)(CO)Cn1cc(-c2c[nH]c3nc[nH]c(=O)c23)nn1 [Compound 03B02, O=C1NC=NC=2NC=C(C=3N=NN(C3)CC(CO)(CO)C)C12] | 67% |
| O=c1[nH]cnc2[nH]cc(-c3cn(Cc4ccc(F)cc4)nn3)c12 [Compound 03E04, Fc1ccc(cc1)CN2N=NC(C=3C=4C(=O)NC=NC4NC3)=C2] | 85% |
| Cc1ccc([C@@H](O)[C@H](C)n2cc(-c3c[nH]c4nc[nH]c(=O)c34)nn2)cc1 [Compound 01D10, O=C1NC=NC=2NC=C(C=3N=NN(C3)[C@H]([C@H](O)c4ccc(cc4)C)C)C12] | 49% |
| O=c1[nH]cnc2[nH]cc(-c3cn(C4(c5ccc(F)cc5)CCOCC4)nn3)c12 [Compound 02C10, Fc1ccc(cc1)C2(N3N=NC(C=4C=5C(=O)NC=NC5NC4)=C3)CCOCC2] | 6% |
| CN1CC[C@@H](n2cc(-c3c[nH]c4nc[nH]c(=O)c34)nn2)C1=O [Compound 03E02, O=C1NC=NC=2NC=C(C=3N=NN(C3)[C@H]4C(=O)N(CC4)C)C12] | 27% |
| CCNC(=O)Cn1cc(-c2c[nH]c3nc[nH]c(=O)c23)nn1 [Compound 01E09, O=C1NC=NC=2NC=C(C=3N=NN(C3)CC(=O)NCC)C12] | 33% |
| CC(C)(C)OCCCn1cc(-c2c[nH]c3nc[nH]c(=O)c23)nn1 [Compound 03C07, O=C1NC=NC=2NC=C(C=3N=NN(C3)CCCOC(C)(C)C)C12] | 42% |
| O=c1[nH]cnc2[nH]cc(-c3cn([C@H]4CCNC4)nn3)c12 [Compound 03D07, O=C1NC=NC=2NC=C(C=3N=NN(C3)[C@@H]4C[NH2+]CC4)C12] | 27% |
| O=c1[nH]cnc2[nH]cc(-c3cn(CC[C@@H]4CCCC4(F)F)nn3)c12 [Compound 02D11, F[C@@]1(F)[C@H](CCN2N=NC(C=3C=4C(=O)NC=NC4NC3)=C2)CCC1] | 75% |
| CN1CCN(CCn2cc(-c3c[nH]c4nc[nH]c(=O)c34)nn2)CC1 [Compound 03G10, O=C1NC=NC=2NC=C(C=3N=NN(C3)CC[N@H+]4CC[N@@H+](CC4)C)C12] | 11% |
| CCOCCn1cc(-c2c[nH]c3nc[nH]c(=O)c23)nn1 [Compound 01B12, O=C1NC=NC=2NC=C(C=3N=NN(C3)CCOCC)C12] | 21% |

| SMILES | inhibition at 1 µM |
| --- | --- |
| O=C(NCCCn1cc(-c2c[nH]c3nc[nH]c(=O)c23)nn1)c1c[nH]nn1 [Compound 02B11, O=C1NC=NC=2NC=C(C=3N=NN(C3)CCCNC(=O)C=4N=NNC4)C12] | 10% |
| COCC(COC)n1cc(-c2c[nH]c3nc[nH]c(=O)c23)nn1 [Compound 03D06, O=C1NC=NC=2NC=C(C=3N=NN(C3)C(COC)COC)C12] | 24% |
| C[C@H](c1ccccc1Cl)n1cc(-c2c[nH]c3nc[nH]c(=O)c23)nn1 [Compound 02H09, Clc1c(cccc1)[C@H](N2N=NC(C=3C=4C(=O)NC=NC4NC3)=C2)C] | 44% |
| Cc1cccc(CCn2cc(-c3c[nH]c4nc[nH]c(=O)c34)nn2)n1 [Compound 03H03, O=C1NC=NC=2NC=C(C=3N=NN(C3)CCc4nc(ccc4)C)C12] | 26% |
| C[C@@H](C(=O)Nc1ccccc1)n1cc(-c2c[nH]c3nc[nH]c(=O)c23)nn1 [Compound 01F02, O=C1NC=NC=2NC=C(C=3N=NN(C3)[C@H](C(=O)Nc4ccccc4)C)C12] | 28% |
| N[C@H]1C[C@@H](n2cc(-c3c[nH]c4nc[nH]c(=O)c34)nn2)C1 [Compound 02G12, O=C1NC=NC=2NC=C(C=3N=NN(C3)[C@@H]4C[C@H]([NH3+])C4)C12] | 31% |
| CN(C)c1ccc(-n2cc(-c3c[nH]c4nc[nH]c(=O)c34)nn2)cc1 [Compound 01E01, O=C1NC=NC=2NC=C(C=3N=NN(c4ccc(N(C)C)cc4)C3)C12] | 33% |
| COc1ccc(Cn2cc(-c3c[nH]c4nc[nH]c(=O)c34)nn2)cc1 [Compound 02E05, O=C1NC=NC=2NC=C(C=3N=NN(C3)Cc4ccc(OC)cc4)C12] | 78% |
| O=c1[nH]cnc2[nH]cc(-c3cn(-c4ccc5c(c4)NCC5)nn3)c12 [Compound 03C06, O=C1NC=NC=2NC=C(C=3N=NN(c4cc5NCCc5cc4)C3)C12] | 25% |
| C[C@@H](Cn1cc(-c2c[nH]c3nc[nH]c(=O)c23)nn1)c1ccccn1 [Compound 03C10, O=C1NC=NC=2NC=C(C=3N=NN(C3)C[C@@H](c4ncccc4)C)C12] | 63% |
| O=c1[nH]cnc2[nH]cc(-c3cn(-c4ccc(Cl)cn4)nn3)c12 [Compound 02C03, Clc1cnc(N2N=NC(C=3C=4C(=O)NC=NC4NC3)=C2)cc1] | -1.83% |
| CNC(=O)CCn1cc(-c2c[nH]c3nc[nH]c(=O)c23)nn1 [Compound 02H01, O=C1NC=NC=2NC=C(C=3N=NN(C3)CCC(=O)NC)C12] | 21% |
| Cn1cc(-n2cc(-c3c[nH]c4nc[nH]c(=O)c34)nn2)cn1 [Compound 01E10, O=C1NC=NC=2NC=C(C=3N=NN(C=4C=NN(C4)C)C3)C12] | 17% |
| O=c1[nH]cnc2[nH]cc(-c3cn(-c4cccc(Cl)c4-c4nnn[nH]4)nn3)c12 [Compound 02G02, Clc1c(c(N2N=NC(C=3C=4C(=O)NC=NC4NC3)=C2)ccc1)C=5[N-]N=NN5] | 15% |
| COc1cccc(C2(n3cc(-c4c[nH]c5nc[nH]c(=O)c45)nn3)CCC2)c1 [Compound 01A12, O=C1NC=NC=2NC=C(C=3N=NN(C3)C4(c5cc(OC)ccc5)CCC4)C12] | 10% |
| Cc1cc(Cn2cc(-c3c[nH]c4nc[nH]c(=O)c34)nn2)no1 [Compound 03F02, O=C1NC=NC=2NC=C(C=3N=NN(C3)CC4=NOC(=C4)C)C12] | 35% |
| O=c1[nH]cnc2[nH]cc(-c3cn([C@H]4COCC[C@@H]4O)nn3)c12 [Compound 02C08, O=C1NC=NC=2NC=C(C=3N=NN(C3)[C@@H]4[C@@H](O)CCOC4)C12] | 49% |
| O=c1[nH]cnc2[nH]cc(-c3cn(Cc4ccc5c(c4)OCO5)nn3)c12 [Compound 03C03, O=C1NC=NC=2NC=C(C=3N=NN(C3)Cc4cc5OCOc5cc4)C12] | 70% |
| O=C1NCCN1CCn1cc(-c2c[nH]c3nc[nH]c(=O)c23)nn1 [Compound 04G03, O=C1N(CCN2N=NC(C=3C=4C(=O)NC=NC4NC3)=C2)CCN1] | 15% |
| O=c1[nH]cnc2[nH]cc(-c3cn(C[C@@H]4C[C@@H]4C(F)(F)F)nn3)c12 [Compound 03E06, FC(F)(F)[C@@H]1[C@H](CN2N=NC(C=3C=4C(=O)NC=NC4NC3)=C2)C1] | 34% |
| O=C(Cn1cc(-c2c[nH]c3nc[nH]c(=O)c23)nn1)NCc1ccccc1 [Compound 03A03, O=C1NC=NC=2NC=C(C=3N=NN(C3)CC(=O)NCc4ccccc4)C12] | 36% |
| N#CCCCn1cc(-c2c[nH]c3nc[nH]c(=O)c23)nn1 [Compound 02E02, O=C1NC=NC=2NC=C(C=3N=NN(C3)CCCC#N)C12] | 35% |
| O=c1[nH]cnc2[nH]cc(-c3cn(Cc4cccs4)nn3)c12 [Compound 02B07, S1C(=CC=C1)CN2N=NC(C=3C=4C(=O)NC=NC4NC3)=C2] | 85% |
